The source of these data is patent US5366963A, “Gangliosides with immunosuppressive ceramide moieties” (The Regents of the University of California, priority 1993, dated 1994).

As usually defined, the inhibition is the drop in the measured response relative to a control, in per cent.

Several values for one entry are separate records, joined by “and”; a condition that tells them apart may be missing. Equal entries are not always repeated. Where two headings read alike, the source gives them in different places.

Experiment [1] has as its system normal human peripheral blood mononuclear cells (PBMC). Nature of the experiment: cells. The following applies: for inhibition at 5 µM / inhibition at 10 µM / inhibition at 2.5 µM: Homo sapiens, PBMC. In kind it is cell-based.
Experiment [2] concerns humoral or cellular immunity. The following applies: Presti et al. 1989; cited from earlier work.

For the molecule `CCCCCCCCCCCCC/C=C/[C@@H](O)[C@H](CO[C@@H]1O[C@H](CO)[C@@H](O[C@@H]2O[C@H](CO)[C@H](O[C@@H]3O[C@H](CO)[C@H](O)[C@H](O)[C@H]3NC(C)=O)[C@H](O[C@]3(C(=O)O)C[C@H](O)[C@@H](NC(C)=O)[C@H]([C@H](O)[C@H](O)CO)O3)[C@H]2O)[C@H](O)[C@H]1O)NC(=O)CCCCCCCCCCCCCCCCC` [d18:1-C18:0 GM2], in experiment [1], testing at 5 µM gave an inhibition of 47% and the inhibition at 10 µM was found to be 86%. In addition, the inhibition at 2.5 µM in experiment [1] (read-out: % inhibition) was determined as 31%.
As to GM1 ganglioside, the “suppressive effect on humoral or cellular immunity in vivo” value in experiment [2] is “no evidence of a suppressive effect”.
As for `CCCCCCCCCCCCC/C=C/[C@@H](O)[C@H](CO[C@@H]1O[C@H](CO)[C@@H](O[C@@H]2O[C@H](CO)[C@H](O[C@@H]3O[C@H](CO)[C@H](O)[C@H](O)[C@H]3NC(C)=O)[C@H](O[C@]3(C(=O)O)C[C@H](O)[C@@H](NC(C)=O)[C@H]([C@H](O)[C@H](O)CO)O3)[C@H]2O)[C@H](O)[C@H]1O)NC(=O)C(O)CCCCCCCCCCCCCCCC` (stereo partly drawn) [d18:1-hC18:0 GM2], in experiment [1], the “cpm (3H-thymidine uptake)” value was 16.7 cpm × 10^-3 and 11.4 cpm × 10^-3 and 12.9 cpm × 10^-3; the “immunosuppressive activity (in words)” value is listed as “less immunosuppressive than the non-hydroxylated species”; the inhibition at 5 µM is 30%; 10 µM produced 21% inhibition. The inhibition at 2.5 µM in experiment [1] (read-out: % inhibition (NI)) was less than 0%.
